# Experimental data published in patent US20250186437A1, “CARBOLINE COMPOUNDS AND USE THEREOF” (PTC Therapeutics, Inc., priority 2021, published 2025).
# Test system: MOLM-13 cells
# Experiment: MOLM-13 Cell Proliferation Assay (indicator of DHODH inhibition)
# Type: cell-based
# Settings: Homo sapiens, 72 Hours of culture, CellTiter-Glo, no uridine
# How it was run: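 Proliferation readout via CellTiter-Glo luminescence after 72 h compound treatment (37 °C, 5% CO2, 0.5% DMSO) of MOLM-13 cells seeded at 10^4 per well in RPMI 1640/10% FBS, used as a DHODH-inhibition indicator since these cells rely on de novo pyrimidine synthesis.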
row,Compound,IC50 [nM]
1,"CN1CCN(c2ncc([C@H]3c4[nH]c5ccc(Cl)cc5c4CCN3c3nc(N4CCOCC4)nc(C(F)(F)F)n3)cn2)CC1 [Compound 509, (1S)-6-chloro-1-[2-(4-methylpiperazin-1-yl)pyrimidin-5-yl]-2-[4-(morpholin-4-yl)-6-(trifluoromethyl)-1,3,5-triazin-2-yl]-2,3,4,9-tetrahydro-1H-pyrido[3,4-b]indole]",8.1
2,"N#Cc1ccc(C2c3[nH]c4ccc(Cl)c(F)c4c3CCN2c2nccc(C(F)(F)F)n2)cc1 (stereo not drawn) [Compound 89, 4-{6-chloro-5-fluoro-2-[4-(trifluoromethyl)pyrimidin-2-yl]-2,3,4,9-tetrahydro-1H-pyrido[3,4-b]indol-1-yl}benzonitrile]",5.7
3,"FC(F)(F)c1ccnc(N2CCc3c([nH]c4ccc(-n5cccc5)cc34)C2c2cnc(N3CCOCC3)nc2)n1 (stereo not drawn) [Compound 314, 1-[2-(morpholin-4-yl)pyrimidin-5-yl]-6-(1H-pyrrol-1-yl)-2-[4-(trifluoromethyl)pyrimidin-2-yl]-2,3,4,9-tetrahydro-1H-pyrido[3,4-b]indole]",22.2
4,"Cc1ccc([C@H]2c3[nH]c4ccc(Cl)cc4c3CCN2c2ncc(F)c(C)n2)cc1 [Compound 394, (1S)-6-chloro-2-(5-fluoro-4-methylpyrimidin-2-yl)-1-(4-methylphenyl)-2,3,4,9-tetrahydro-1H-pyrido[3,4-b]indole]",4.9
5,"Cc1nc(C)nc(N2CCc3c([nH]c4ccc(Cl)cc34)C2c2ccc(Cl)cc2)n1 (stereo not drawn) [Compound 449, 6-chloro-1-(4-chlorophenyl)-2-(4,6-dimethyl-1,3,5-triazin-2-yl)-2,3,4,9-tetrahydro-1H-pyrido[3,4-b]indole]",15.2
6,"Fc1cc2[nH]c3c(c2cc1Cl)CCN(c1ncccn1)C3c1ccc(C2CC2)cc1 (stereo not drawn) [Compound 45, 6-chloro-1-(4-cyclopropylphenyl)-7-fluoro-2-(pyrimidin-2-yl)-2,3,4,9-tetrahydro-1H-pyrido[3,4-b]indole]",32.2
7,"Cc1ccc(C2c3[nH]c4ccc(Cl)cc4c3CCN2c2nc(C)nc(C)n2)c(F)c1 (stereo not drawn) [Compound 452, 6-chloro-2-(4,6-dimethyl-1,3,5-triazin-2-yl)-1-(2-fluoro-4-methylphenyl)-2,3,4,9-tetrahydro-1H-pyrido[3,4-b]indole]",5.1
8,"Cc1cc(C(F)(F)F)nc(N2CCc3c([nH]c4ccc(Cl)cc34)[C@H]2c2ccc(C)c(F)c2F)n1 [Compound 204, (1R)-6-chloro-1-(2,3-difluoro-4-methylphenyl)-2-[4-methyl-6-(trifluoromethyl)pyrimidin-2-yl]-2,3,4,9-tetrahydro-1H-pyrido[3,4-b]indole]",39.8
9,"OCCCCc1ccc(C2c3[nH]c4cc(F)c(Cl)cc4c3CCN2c2nccc(C(F)(F)F)n2)cc1 (stereo not drawn) [Compound 168, 4-(4-{6-chloro-7-fluoro-2-[4-(trifluoromethyl)pyrimidin-2-yl]-2,3,4,9-tetrahydro-1H-pyrido[3,4-b]indol-1-yl}phenyl)butan-1-ol]",4.1
10,"Cc1ccnc(N2CCc3c([nH]c4cc(F)c(Cl)cc34)C2c2ccc(F)cc2)n1 (stereo not drawn) [Compound 9, 6-chloro-7-fluoro-1-(4-fluorophenyl)-2-(4-methylpyrimidin-2-yl)-2,3,4,9-tetrahydro-1H-pyrido[3,4-b]indole]",35.9
11,"CN(C)c1ncc(C2c3[nH]c4cc(F)c(Cl)cc4c3CCN2c2ncc(F)cn2)cn1 (stereo not drawn) [Compound 14, 5-[6-chloro-7-fluoro-2-(5-fluoropyrimidin-2-yl)-2,3,4,9-tetrahydro-1H-pyrido[3,4-b]indol-1-yl]-N,N-dimethylpyrimidin-2-amine]",30.2
12,"Cc1nc(N2CCc3c([nH]c4cc(F)c(Cl)cc34)C2c2cccc(F)c2F)ncc1F (stereo not drawn) [Compound 124, 6-chloro-1-(2,3-difluorophenyl)-7-fluoro-2-(5-fluoro-4-methylpyrimidin-2-yl)-2,3,4,9-tetrahydro-1H-pyrido[3,4-b]indole]",8.6
13,"Cc1ccc(C2c3[nH]c4cc(F)c(Cl)cc4c3CCN2c2ncc(F)cn2)cc1 (stereo not drawn) [Compound 6, 6-chloro-7-fluoro-2-(5-fluoropyrimidin-2-yl)-1-(4-methylphenyl)-2,3,4,9-tetrahydro-1H-pyrido[3,4-b]indole]",37.6
14,"CC(C)c1ccc(C2c3[nH]c4cc(F)c(Cl)cc4c3CCN2c2ncc(C(F)(F)F)cn2)cc1 (stereo not drawn) [Compound 99, 6-chloro-7-fluoro-1-[4-(propan-2-yl)phenyl]-2-[5-(trifluoromethyl)pyrimidin-2-yl]-2,3,4,9-tetrahydro-1H-pyrido[3,4-b]indole]",14
15,"COc1ccc2[nH]c3c(c2c1)CCN(c1nccc(C(F)(F)F)n1)C3c1cnc(N2CCOCC2)nc1 (stereo not drawn) [Compound 302, 6-methoxy-1-[2-(morpholin-4-yl)pyrimidin-5-yl]-2-[4-(trifluoromethyl)pyrimidin-2-yl]-2,3,4,9-tetrahydro-1H-pyrido[3,4-b]indole]",7
16,"Cc1ccc(C2c3[nH]c4ccc(F)c(F)c4c3CCN2c2ncc(Cl)cn2)cc1 (stereo not drawn) [Compound 84, 2-(5-chloropyrimidin-2-yl)-5,6-difluoro-1-(4-methylphenyl)-2,3,4,9-tetrahydro-1H-pyrido[3,4-b]indole]",65.6
17,"Cc1nc(C)nc(N2CCc3c([nH]c4ccc(Cl)cc34)C2c2ccc(F)cc2F)n1 (stereo not drawn) [Compound 451, 6-chloro-1-(2,4-difluorophenyl)-2-(4,6-dimethyl-1,3,5-triazin-2-yl)-2,3,4,9-tetrahydro-1H-pyrido[3,4-b]indole]",8
18,"CC(C)c1ccc(C2c3[nH]c4cc(F)c(Cl)cc4c3CCN2c2ncc(Cl)cn2)cc1 (stereo not drawn) [Compound 57, 6-chloro-2-(5-chloropyrimidin-2-yl)-7-fluoro-1-[4-(propan-2-yl)phenyl]-2,3,4,9-tetrahydro-1H-pyrido[3,4-b]indole]",19.9
19,"Cc1ccc(C2c3[nH]c4ccc(Cl)c(F)c4c3CCN2c2ncc(F)c(C)n2)cc1 (stereo not drawn) [Compound 109, 6-chloro-5-fluoro-2-(5-fluoro-4-methylpyrimidin-2-yl)-1-(4-methylphenyl)-2,3,4,9-tetrahydro-1H-pyrido[3,4-b]indole]",5.6

# More lines, in order of falling IC50, values ahead:
row,IC50 [nM],Compound
1,4,"Cc1ccc(C2c3[nH]c4ccc(Cl)cc4c3CCN2c2nccc(-c3ccccc3)n2)c(F)c1F (stereo not drawn) [Compound 469, 6-chloro-1-(2,3-difluoro-4-methylphenyl)-2-(4-phenylpyrimidin-2-yl)-2,3,4,9-tetrahydro-1H-pyrido[3,4-b]indole]"
2,3.7,"Cc1ccc([C@H]2c3[nH]c4ccc(Cl)cc4c3CCN2c2nc(C)nc(C#N)n2)cc1 [Compound 411, 4-[(1S)-6-chloro-1-(4-methylphenyl)-1,3,4,9-tetrahydro-2H-pyrido[3,4-b]indol-2-yl]-6-methyl-1,3,5-triazine-2-carbonitrile]"
3,2.8,"Cc1cc(C)nc(N2CCc3c([nH]c4cc(F)c(Cl)cc34)C2c2ccc(/C=C/CCO)cc2)n1 (stereo not drawn) [Compound 244, (3E)-4-{4-[6-chloro-2-(4,6-dimethylpyrimidin-2-yl)-7-fluoro-2,3,4,9-tetrahydro-1H-pyrido[3,4-b]indol-1-yl]phenyl}but-3-en-1-ol]"
4,2.2,"CN(C)c1ccc(C2c3[nH]c4cc(F)c(Cl)cc4c3CCN2c2nccc(C(F)(F)F)n2)c(F)n1 (stereo not drawn) [Compound 208, 5-{6-chloro-7-fluoro-2-[4-(trifluoromethyl)pyrimidin-2-yl]-2,3,4,9-tetrahydro-1H-pyrido[3,4-b]indol-1-yl}-6-fluoro-N,N-dimethylpyridin-2-amine]"
5,1.6,"FC(F)(F)c1cc(C(F)(F)F)nc(N2CCc3c([nH]c4ccc(Cl)cc34)[C@@H]2c2cnc(N3CCNC4(CC4)C3)nc2)n1 [Compound 512, (1S)-2-[4,6-bis(trifluoromethyl)pyrimidin-2-yl]-6-chloro-1-[2-(4,7-diazaspiro[2.5]octan-7-yl)pyrimidin-5-yl]-2,3,4,9-tetrahydro-1H-pyrido[3,4-b]indole]"
6,1.5,"Cc1ccc([C@H]2c3[nH]c4ccc(Cl)cc4c3CCN2c2nc(C(F)(F)F)nc(C(Cl)(Cl)Cl)n2)c(F)c1F [Compound 505, (1S)-6-chloro-1-(2,3-difluoro-4-methylphenyl)-2-[4-(trichloromethyl)-6-(trifluoromethyl)-1,3,5-triazin-2-yl]-2,3,4,9-tetrahydro-1H-pyrido[3,4-b]indole]"
7,1.4,"FC(F)(F)c1nc(N2CCc3c([nH]c4ccc(-n5nccn5)cc34)[C@@H]2c2cnc(N3CCOCC3)nc2)nc(C(F)(F)F)n1 [Compound 516, (1S)-2-[4,6-bis(trifluoromethyl)-1,3,5-triazin-2-yl]-1-[2-(morpholin-4-yl)pyrimidin-5-yl]-6-(2H-1,2,3-triazol-2-yl)-2,3,4,9-tetrahydro-1H-pyrido[3,4-b]indole]"
8,1.3,"Cc1cnn(-c2ccc3[nH]c4c(c3c2)CCN(c2nc(C(F)(F)F)nc(C(F)(F)F)n2)[C@H]4c2ccc(C)c(F)c2F)n1 [Compound 525, (1S)-2-[4,6-bis(trifluoromethyl)-1,3,5-triazin-2-yl]-1-(2,3-difluoro-4-methylphenyl)-6-(4-methyl-2H-1,2,3-triazol-2-yl)-2,3,4,9-tetrahydro-1H-pyrido[3,4-b]indole]"
9,1.1,"N#Cc1cc(C(F)(F)F)nc(N2CCc3c([nH]c4ccc(Cl)cc34)[C@@H]2c2ccc(N3CCOCC3)nc2)n1 [Compound 433, 2-{(1S)-6-chloro-1-[6-(morpholin-4-yl)pyridin-3-yl]-1,3,4,9-tetrahydro-2H-pyrido[3,4-b]indol-2-yl}-6-(trifluoromethyl)pyrimidine-4-carbonitrile]"
10,0.4,"Cc1ccc([C@H]2c3[nH]c4ccc(Cl)c(F)c4c3CCN2c2nc(C)c(F)c(C)n2)c(F)c1F [Compound 189, (1S)-6-chloro-1-(2,3-difluoro-4-methylphenyl)-5-fluoro-2-(5-fluoro-4,6-dimethylpyrimidin-2-yl)-2,3,4,9-tetrahydro-1H-pyrido[3,4-b]indole]"
11,0.3,"CN1CCN(c2ncc([C@H]3c4[nH]c5ccc(Br)cc5c4CCN3c3nc(C(F)(F)F)cc(C(F)(F)F)n3)cn2)CC1 [Compound 499, (1S)-2-[4,6-bis(trifluoromethyl)pyrimidin-2-yl]-6-bromo-1-[2-(4-methylpiperazin-1-yl)pyrimidin-5-yl]-2,3,4,9-tetrahydro-1H-pyrido[3,4-b]indole]"
